# From patent US11771738B2 (Zoetis Services LLC, priority 2018, dated 2023)
# Like-named read-outs stand apart in the source and are kept apart here.
# Experiments:
# D. immitis L4 larvae = assay: Dirofilaria immitis, L4 Stage (DiL4) In Vitro Assay; assay type: cell-based; conditions: ratio of DiMf MED to DiL4 MED
# [1] = test system: circulating microfilariae; assay: Heartworm Positive Dog Studies
# [2] = test system: circulating microfilariae; conditions: dog, in vivo
molecule,measurement,setting,value
"CC(C)C[C@H]1C(=O)O[C@H](Cc2ccc(N3CCOCC3)cc2)C(=O)N(C)[C@@H](CC(C)C)C(=O)O[C@H](C)C(=O)N(C)[C@@H](CC(C)C)C(=O)O[C@H](Cc2ccc(N3CCOCC3)cc2)C(=O)N(C)[C@@H](CC(C)C)C(=O)O[C@H](C)C(=O)N1C [emodepside, Emodepside, reference compound]",selectivity against D. immitis L4 (DiMf/DiL4),D. immitis L4 larvae,1 ×
same,adverse effects / clinical observations,"[1]; heartworm positive dogs, oral, emodepside 1 mg/kg, Example 3-9 3 mg/kg",all treated dogs exhibited adverse effects consistent with dead or dying circulating microfilariae
same,"Mean MF/mL, Day 0, Post-dose, 2 hours","[1]; heartworm positive dogs, oral, emodepside 1 mg/kg, Example 3-9 3 mg/kg, 2 hours post-dose, blood","8,300 MF/mL"
same,"Mean MF/mL, Day 0 Pre-dose","[1]; heartworm positive dogs, oral, emodepside 1 mg/kg, Example 3-9 3 mg/kg, Day 0 pre-dose, blood","61,000 MF/mL"
same,"Mean MF/mL, Day 1","[1]; heartworm positive dogs, oral, emodepside 1 mg/kg, Example 3-9 3 mg/kg, Day 1, blood","4,500 MF/mL"
same,"Mean MF/mL, Day 7","[1]; heartworm positive dogs, oral, emodepside 1 mg/kg, Example 3-9 3 mg/kg, Day 7, blood","8,800 MF/mL"
same,"% Reduction of MF, Day 0, Post-dose, 2 hours","[1]; vs pre-dose (day 0) levels, oral, emodepside 1 mg/kg, Example 3-9 3 mg/kg, 2 hours post-dose",87%
same,"% Reduction of MF, Day 0, Post-dose, 2 hours","[1]; vs pre-dose (day 0) levels, oral, emodepside 1 mg/kg, Example 3-9 3 mg/kg, 2 hours post-dose, listed as Emodepside",87%
same,"% Reduction of MF, Day 1","[1]; vs pre-dose (day 0) levels, oral, emodepside 1 mg/kg, Example 3-9 3 mg/kg, Day 1",93%
same,"% Reduction of MF, Day 7","[1]; vs pre-dose (day 0) levels, oral, emodepside 1 mg/kg, Example 3-9 3 mg/kg, Day 7",86%
"(3S,6R,9S,12R,15S,18R,21S,24R)-6-benzyl-18-(4-(hydroxy(6-methoxypyridin-3-yl)methyl)benzyl)-3,9,15,21-tetraisobutyl-4,10,12,16,22,24-hexamethyl-1,7,13,19-tetraoxa-4,10,16,22-tetraazacyclotetracosan-2,5,8,11,14,17,20,23-octaone [Example 3-9]",adverse effects / clinical observations,[2],no adverse effects observed
same,"% Reduction of MF, Day 0, Post-dose, 2 hours","[1]; dog, in vivo",−11%
same,"% Reduction of MF, Day 1","[1]; dog, in vivo",−28%
same,"% Reduction of MF, Day 7","[1]; dog, in vivo",−50%
same,"Mean MF/mL, Day 0, Post-dose, 2 hours","[1]; dog, in vivo","20,000 MF/mL"
same,"Mean MF/mL, Day 0 Pre-dose","[1]; dog, in vivo","18,000 MF/mL"
same,"Mean MF/mL, Day 1","[1]; dog, in vivo","23,000 MF/mL"
same,"Mean MF/mL, Day 7","[1]; dog, in vivo","25,000 MF/mL"
same,"% Reduction of MF, Day 14","[1]; dog, in vivo, po, 3 mg/kg",−22%
same,"% Reduction of MF, Day 21","[1]; dog, in vivo, po, 3 mg/kg",−33%
same,"Mean MF/mL, Day 14","[1]; dog, in vivo, po, 3 mg/kg","22,000 MF/mL"
same,"Mean MF/mL, Day 21","[1]; dog, in vivo, po, 3 mg/kg","24,000 MF/mL"
